# Experimental data: publication PMC4826332 (Journal of medicinal chemistry, 2015)
# Where two headings read alike, the source gives them in different places.
# Legend:
# [1] = biological target: aryl hydrocarbon receptor (AhR) (Homo sapiens, UniProt P35869); assay: Yeast AhR-signaling assay; format: cell-based
# [2] = biological target: T1, P450 1A2 in HepG2 cells (Homo sapiens, UniProt P05177); assay: MROD assay in HepG2 cells
# T1 sequence (P05177 2-516): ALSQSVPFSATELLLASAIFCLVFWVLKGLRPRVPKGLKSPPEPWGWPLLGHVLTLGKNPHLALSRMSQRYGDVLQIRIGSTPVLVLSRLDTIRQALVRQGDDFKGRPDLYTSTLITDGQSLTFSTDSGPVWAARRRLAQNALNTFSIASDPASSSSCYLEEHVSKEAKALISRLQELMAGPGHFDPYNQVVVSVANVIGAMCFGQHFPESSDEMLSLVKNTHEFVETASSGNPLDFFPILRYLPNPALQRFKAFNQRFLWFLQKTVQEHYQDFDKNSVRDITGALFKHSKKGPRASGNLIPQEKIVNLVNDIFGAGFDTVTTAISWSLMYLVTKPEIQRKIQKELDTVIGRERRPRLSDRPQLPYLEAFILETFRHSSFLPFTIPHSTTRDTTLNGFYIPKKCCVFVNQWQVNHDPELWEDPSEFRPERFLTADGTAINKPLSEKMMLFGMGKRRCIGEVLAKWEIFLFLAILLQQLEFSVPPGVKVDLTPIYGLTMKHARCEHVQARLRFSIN
# [3] = biological target: T2, CYP1A2 (Homo sapiens, UniProt P05177); assay: NADPH-dependency assay, P450 1A2; conditions: human, pH 7.6, probe methoxyresorufin (MROD), 5 µM
# T2 sequence (P05177 1-516): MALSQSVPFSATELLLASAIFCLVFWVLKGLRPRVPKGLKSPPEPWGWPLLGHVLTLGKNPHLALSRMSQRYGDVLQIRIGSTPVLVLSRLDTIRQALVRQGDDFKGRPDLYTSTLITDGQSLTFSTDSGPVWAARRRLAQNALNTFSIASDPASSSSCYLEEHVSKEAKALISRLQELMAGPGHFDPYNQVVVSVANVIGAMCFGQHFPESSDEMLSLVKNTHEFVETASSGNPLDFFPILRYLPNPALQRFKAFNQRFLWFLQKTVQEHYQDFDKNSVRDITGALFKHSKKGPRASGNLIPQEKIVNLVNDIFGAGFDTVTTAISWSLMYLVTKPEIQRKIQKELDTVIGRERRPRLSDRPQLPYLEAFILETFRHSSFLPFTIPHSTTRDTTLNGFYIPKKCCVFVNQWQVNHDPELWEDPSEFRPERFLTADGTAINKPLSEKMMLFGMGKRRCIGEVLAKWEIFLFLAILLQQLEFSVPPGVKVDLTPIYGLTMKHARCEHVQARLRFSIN
# [4] = biological target: T3, P450 1A1 (Homo sapiens, UniProt P04798); assay: NADPH-dependency assay, P450 1A1; conditions: 10 nM (0.01 μM) inhibitor, with or without 5 min NADPH preincubation
# T3 sequence (P04798 1-512): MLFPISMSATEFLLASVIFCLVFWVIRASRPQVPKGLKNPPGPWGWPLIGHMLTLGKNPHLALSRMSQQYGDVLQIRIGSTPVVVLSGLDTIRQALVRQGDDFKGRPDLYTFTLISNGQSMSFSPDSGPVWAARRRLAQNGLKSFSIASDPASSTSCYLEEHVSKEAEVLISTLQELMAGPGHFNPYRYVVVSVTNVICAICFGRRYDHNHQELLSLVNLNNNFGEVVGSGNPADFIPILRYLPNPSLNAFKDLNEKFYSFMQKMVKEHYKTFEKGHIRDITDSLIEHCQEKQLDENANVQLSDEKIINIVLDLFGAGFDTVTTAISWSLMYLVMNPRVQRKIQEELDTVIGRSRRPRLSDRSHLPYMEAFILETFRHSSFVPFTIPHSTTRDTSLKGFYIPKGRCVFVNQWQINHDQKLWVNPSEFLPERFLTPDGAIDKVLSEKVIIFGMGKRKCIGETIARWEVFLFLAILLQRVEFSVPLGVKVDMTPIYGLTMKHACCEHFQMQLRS
# [5] = biological target: T4, P450 1B1 (Homo sapiens, UniProt Q16678); assay: NADPH-dependency assay, P450 1B1; conditions: 10 nM (0.01 μM) inhibitor, with or without 5 min NADPH preincubation
# T4 sequence (Q16678 1-543): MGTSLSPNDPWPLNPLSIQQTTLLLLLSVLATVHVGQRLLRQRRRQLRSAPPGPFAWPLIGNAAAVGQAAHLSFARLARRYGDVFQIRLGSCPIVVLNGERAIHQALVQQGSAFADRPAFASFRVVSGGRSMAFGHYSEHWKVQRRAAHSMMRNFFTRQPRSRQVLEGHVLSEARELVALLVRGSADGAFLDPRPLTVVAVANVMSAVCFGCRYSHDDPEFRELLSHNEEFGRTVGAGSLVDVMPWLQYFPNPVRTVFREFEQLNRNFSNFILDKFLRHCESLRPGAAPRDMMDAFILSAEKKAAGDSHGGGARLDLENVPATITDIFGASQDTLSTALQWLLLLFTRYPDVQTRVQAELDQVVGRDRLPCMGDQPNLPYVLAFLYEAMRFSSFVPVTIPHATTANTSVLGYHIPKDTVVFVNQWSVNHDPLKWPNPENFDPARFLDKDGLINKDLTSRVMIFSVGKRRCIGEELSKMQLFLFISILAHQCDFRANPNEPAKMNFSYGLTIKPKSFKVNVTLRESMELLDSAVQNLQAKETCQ
# [6] = biological target: T5, P450 1A2 (Homo sapiens, UniProt P05177); assay: Time-dependent inhibition of P450 1A2; conditions: for KI (time-dependent inhibition of P450 1A2): Kitz-Wilson plot
# T5 sequence (P05177 1-516): T2 sequence (P05177 1-516)
# [7] = tested on: HepG2 cells; assay: Alamar blue viability assay in HepG2 cells; format: cell-based, human
# [8] = biological target: T5, P450 1A2; assay: NADPH-dependency assay, P450 1A2; conditions: 10 nM inhibitor, without NADPH preincubation
# Sequence of aryl hydrocarbon receptor (AhR) (P35869 11-848): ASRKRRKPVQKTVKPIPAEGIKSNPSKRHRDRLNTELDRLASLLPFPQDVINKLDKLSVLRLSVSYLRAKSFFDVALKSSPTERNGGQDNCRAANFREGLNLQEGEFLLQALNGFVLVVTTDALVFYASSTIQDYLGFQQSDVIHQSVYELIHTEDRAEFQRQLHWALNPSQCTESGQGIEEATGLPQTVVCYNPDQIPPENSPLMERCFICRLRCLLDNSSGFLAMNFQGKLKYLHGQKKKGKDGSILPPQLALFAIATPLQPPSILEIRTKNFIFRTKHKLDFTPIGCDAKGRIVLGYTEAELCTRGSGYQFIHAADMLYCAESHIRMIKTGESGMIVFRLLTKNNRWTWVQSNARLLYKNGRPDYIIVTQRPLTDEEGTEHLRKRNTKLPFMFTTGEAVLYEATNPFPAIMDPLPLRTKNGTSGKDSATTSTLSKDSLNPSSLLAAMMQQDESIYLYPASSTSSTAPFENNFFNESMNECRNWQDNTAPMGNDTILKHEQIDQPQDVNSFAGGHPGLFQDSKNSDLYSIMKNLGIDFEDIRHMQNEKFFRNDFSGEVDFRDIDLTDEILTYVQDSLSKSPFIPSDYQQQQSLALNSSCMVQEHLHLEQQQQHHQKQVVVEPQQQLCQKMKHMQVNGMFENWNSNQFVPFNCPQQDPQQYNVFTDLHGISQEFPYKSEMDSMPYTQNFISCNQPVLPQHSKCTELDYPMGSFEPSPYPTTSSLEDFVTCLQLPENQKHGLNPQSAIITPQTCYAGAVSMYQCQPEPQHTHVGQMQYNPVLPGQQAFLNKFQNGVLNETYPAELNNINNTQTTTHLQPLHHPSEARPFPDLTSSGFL
# Sequence of aryl hydrocarbon receptor (AhR) (P27540 whole entry partner): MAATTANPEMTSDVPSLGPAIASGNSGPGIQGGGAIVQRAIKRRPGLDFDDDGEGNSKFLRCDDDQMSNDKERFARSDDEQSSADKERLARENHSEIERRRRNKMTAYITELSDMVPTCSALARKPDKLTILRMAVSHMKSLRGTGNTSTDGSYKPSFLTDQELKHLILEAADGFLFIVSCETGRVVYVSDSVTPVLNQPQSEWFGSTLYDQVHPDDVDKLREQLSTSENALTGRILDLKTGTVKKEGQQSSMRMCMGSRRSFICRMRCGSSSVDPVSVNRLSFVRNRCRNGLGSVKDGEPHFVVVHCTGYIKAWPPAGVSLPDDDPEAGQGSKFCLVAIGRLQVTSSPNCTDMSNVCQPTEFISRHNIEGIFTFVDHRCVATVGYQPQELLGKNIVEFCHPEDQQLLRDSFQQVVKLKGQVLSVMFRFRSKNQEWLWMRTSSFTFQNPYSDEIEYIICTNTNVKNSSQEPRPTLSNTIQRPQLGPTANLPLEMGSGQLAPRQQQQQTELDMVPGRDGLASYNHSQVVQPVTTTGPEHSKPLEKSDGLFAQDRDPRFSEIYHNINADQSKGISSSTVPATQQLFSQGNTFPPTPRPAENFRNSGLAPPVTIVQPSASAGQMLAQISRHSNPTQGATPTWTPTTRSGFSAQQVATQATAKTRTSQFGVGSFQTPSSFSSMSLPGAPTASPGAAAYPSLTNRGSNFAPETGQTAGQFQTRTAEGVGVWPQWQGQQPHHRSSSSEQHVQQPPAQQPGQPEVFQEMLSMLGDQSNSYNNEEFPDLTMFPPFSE
compound,measurement,setting,value
"O=c1cc(-c2ccccc2)oc2ccc3ccccc3c12 [βNF, β-naphthoflavone, reference compound]",activation of AhR-signaling pathway (Abs405/Abs600),"[1]; 10^−8 M, positive control, compared with blank control (1% DMSO)",great activation
same,effect on MROD activity in HepG2 cells,"[2]; 10^−5 M, 24 h incubation, read at 10, 30, 60 min",increased
"Cc1cc2c(cc(O)c3c(=O)cc(-c4ccccc4)oc32)o1 [Compound 8, 5-Hydroxy-8-methyl-2-phenyl-4H-furo[2,3-h]chromen-4-one]","inhibition at 6 min, 0.01 µM",[3],90%
same,effect on P450 1A1 activity,[4],does not influence
same,effect on P450 1B1 activity,[5],does not influence
same,mode of inhibition of P450 1A2 (time dependence),[6],time- and NADPH-dependent inhibition
same,KI (time-dependent inhibition of P450 1A2),[6],120 nM
"O=c1cc(C(F)(F)F)c2ccc3c(c2o1)C=CCO3 [Compound 20, 4-(Trifluoromethyl)pyrano[2,3-f]chromen-2(8H)-one]",influence on βNF-induced AhR activation,[1]; 10^−4 to 10^−10 M compound combined with 10^−8 M βNF,do not influence
same,concentration at which AhR is not activated,[1]; yeast AhR activation assays,lower than 1 μM
same,concentrations at which AhR-signaling pathway is not activated,[1]; yeast strain MYA-3637,lower than 10^−6 M
same,concentration not toxic to HepG2 cells,[7],≤ 10^−5 M
same,concentrations decreasing MROD activity in HepG2 cells,"[2]; 24 h incubation, read at 10, 30, 60 min",higher than 10^−6 M
same,concentrations decreasing MROD activity in HepG2 cells,[2]; in-cell P450 1A2 inhibition assays,higher than 1 μM
same,mode of inhibition of P450 1A2 (time dependence),[6],competitive inhibitor
"Cc1cc2c(ccc3c(=O)cc(-c4ccccc4)oc32)o1 [Compound 3, 8-Methyl-2-phenyl-4H-furo[2,3-h]chromen-4-one]",concentrations showing considerable activation of AhR,[1]; yeast strain MYA-3637,higher than 10^−7 M
same,"inhibition at 6 min, 0.01 µM",[3],90%
same,effect on P450 1A2 activity without NADPH preincubation,[8],significant inhibition
same,effect on P450 1A1 activity,[4],does not influence
same,effect on P450 1B1 activity,[5],does not influence
same,mode of inhibition of P450 1A2 (time dependence),[6],time-dependent inhibitor
same,KI (time-dependent inhibition of P450 1A2),[6],440 nM
same,mode of inhibition of P450 1A2 (time dependence),"[6]; listed as 7,8-furanoflavone",time-dependently inhibits
same,mode of inhibition of P450 1A2 (time dependence),[6]; listed as 78FF,time- and NADPH-dependent inhibition
